One series is described as follows: Solubility. It counts as physicochemical.
For series [1], the system named is Pyricularia oryzae IFO 5994. Briefly: microbe, parasite or virus in culture. Format: cell-based. The settings on record: IFO5994, read-out: Inhibition Circle.
In the next series the test system is HeLa. Briefly: Cell-killing activity. It counts as cell-based. The settings on record: Homo sapiens; HeLa cells; read-out: ID50 (concentration at which 50% of cancer cells are killed).
For another series, the system named is KB. Briefly: Cell-killing activity. It counts as cell-based. The settings on record: Homo sapiens; KB cells; read-out: ID50 (concentration at which 50% of cancer cells are killed).
Series [2] has as its system Candida albicans IFO 1594. Format: cell-based. The settings on record: IFO1594, 20 μg/disc (diameter 8 mm), read-out: Inhibition Circle. From the text: (§1) The value in paretheses in the table denotes a partial inhibition.
The next series deals with Escherichia coli BE 1186. It counts as cell-based. The settings on record: BE1186, 20 μg/disc (diameter 8 mm), read-out: Inhibition Circle.
Description: as §1

A further series concerns Alternaria mali IFO 8984. It counts as cell-based. The settings on record: IFO8984, 20 μg/disc (diameter 8 mm), read-out: Inhibition Circle.
Description: as §1

The subject of series [3] is Pseudomonas aeruginosa IFO 13130. It counts as cell-based. The settings on record: IFO13130, 20 μg/disc (diameter 8 mm), read-out: Inhibition Circle.
Description: as §1

Series [4] has as its system Colletotrichum lagenarium IFO 7513. It counts as cell-based. The settings on record: Colletotrichum orbiculare, IFO7513; 20 μg/disc (diameter 8 mm); value in parentheses denotes a partial inhibition; read-out: Inhibition Circle.
Description: as §1

For a further series, the system named is Escherichia coli AB 1157. Format: cell-based. The settings on record: AB1157, 20 μg/disc (diameter 8 mm), read-out: Inhibition Circle.
Description: as §1

The next series has as its system Chlorella vulgaris. Format: cell-based. The settings on record: 20 μg/disc (diameter 8 mm), read-out: Inhibition Circle.
Description: as §1

Structures are written as SMILES. Converted amounts (≈) assume the structure as drawn.

Turning to `CC=C(C)C(O)C(C)C=C(C)C=CCC(C)=CCc1nc(OC)c(OC)c(OC2OC(C)C(O)C(O)C2O)c1C` (stereo not drawn), the Solubility result in “Solubility” (chloroform, dimethyl sulfoxide, methanol, acetone) was “Soluble in chloroform, dimethyl sulfoxide, methanol and acetone”; in “Solubility” (n-hexane, water) it was “Insoluble in n-hexane and water”. Besides, the zone of inhibition at 20 µg/disc amounted to 19.1 mm in series [1]; 0 mm in [2]; 0 mm with Escherichia coli BE 1186; 0 mm with Alternaria mali IFO 8984; 0 mm in [3]; 13.3 mm in series [4]. Besides, the zone of inhibition at 20 µg/disc in the series with Escherichia coli AB 1157 and in the series on Chlorella vulgaris was 0 mm throughout. The IC50 with HeLa was 2.8 µg/mL (≈ 4.98 µM); in the series on KB, 0.74 µg/mL (≈ 1.32 µM).

For the origin of these results see patent publication US5126436A (priority 1989, dated 1992).
